Patent US12168012B2, “NLRP3 inflammasome inhibitors” (Novartis AG, priority 2018, dated 2024)

Assays:
Assay type in all cases: cell-based
[1] = tested on: NF-kB-dependent TNF-α secretion; experiment: TNF-α secretion assay (counterscreen); settings: Homo sapiens; THP-1 cells, Pam3CSK4-stimulated, 3 hours, HTRF
How it was run: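 Undifferentiated THP-1 cells, rested overnight, given compound then stimulated with 1 μg/mL LPS or 100 ng/mL Pam3CSK4 for 3 hours. Supernatant TNF-α measured by HTRF; IC50 from four-parameter logistic fit of % inhibition versus concentration, with viability monitored.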

THP-1 cells = experiment: Readout of pyroptosis (PrestoBlue cell viability reagent) in the IL-1β secretion assay; settings: Homo sapiens; PMA-differentiated THP-1 cells, nigericin; values marked * in the IL-1β column
Procedure: Monocytic THP-1 cells (ATCC: TIB-202) were maintained according to providers' instructions in RPMI media (RPMI/Hepes+10% fetal bovine serum+Sodium Pyruvate+0.05 mM Beta-mercaptoethanol (1000× stock)+Pen-Strep). Cells were differentiated in bulk with 0.5 μM phorbol 12-myristate 13-acetate (PMA; Sigma #P8139) for 3 hours, media was exchanged, and cells were plated at 50,000 cells per well in a 384-well flat-bottom cell culture plates (Greiner, #781986), and allowed to differentiate overnight. Compound in a 1:3.16 serial dilution series in DMSO was added 1:100 to the cells and incubated for 1 hour. The NLRP3 inflammasome was activated with the addition of 15 μM (final concentration) Nigericin (Enzo Life Sciences, #BML-CA421-0005), and cells were incubated for 3 hours. 10 μL supernatant was removed, and IL-1p levels were monitored using an HTRF assay (CisBio, #62IL1PEC) according to manufacturers' instructions. Viability and pyroptosis was monitored with the addition of PrestoBlue cell viability reagent (Life Technologies, #A13261) directly to the cell culture plate.

NLRP3 inflammasome = experiment: IL-1β secretion assay; settings: Homo sapiens, THP-1, 3 h, PMA-differentiated THP-1 cells, 15 μM nigericin, HTRF
How it was run: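 PMA-differentiated THP-1 cells stimulated with nigericin to trigger NLRP3-dependent IL-1β secretion, measured by HTRF after 3 h. Viability/pyroptosis monitored with PrestoBlue. IC50 from logistic fit of % inhibition vs concentration with Hill coefficient.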

Compound | IC50 [1] [nM] | IC50 (THP-1 cells) [nM] | IC50 (NLRP3 inflammasome) [nM]
CC(C)c1nn(CC(=O)N[C@H]2CCC[C@@H](NC(=O)OC(C)(C)C)C2)c(=O)c2cc3sc(Cl)cc3n12 [Ex 56, tert-Butyl ((1R,3S)-3-(2-(2-chloro-5-isopropyl-8-oxothieno[2′,3′:4,5]pyrrolo[1,2-d][1,2,4]triazin-7(8H)-yl)acetamido)cyclohexyl)carbamate] | > 100000 | > 330 | 
CC(C)(O)c1nn(CC(=O)Nc2cccc(NS(C)(=O)=O)c2)c(=O)c2cc3sc(Cl)cc3n12 [Ex 116, 2-(2-Chloro-5-(2-hydroxypropan-2-yl)-8-oxothieno[2′,3′:4,5]pyrrolo[1,2-d][1,2,4]triazin-7(8H)-yl)-N-(3-(methylsulfonamido)phenyl)acetamide] |  | 400 | 
CC(C)c1nn(CC(=O)Nc2nncs2)c(=O)c2cc3sc(Cl)cc3n12 [Ex 117, 2-(2-Chloro-5-isopropyl-8-oxothieno[2′,3′:4,5]pyrrolo[1,2-d][1,2,4]triazin-7(8H)-yl)-N-(1,3,4-thiadiazol-2-yl)acetamide] |  | 6000 | 
CC(C)c1nn(CC(=O)N[C@@H]2CCCN(C[C@@H](C)O)C2)c(=O)c2cc3sc(Cl)cc3n12 [Ex 128, 2-(2-Chloro-5-isopropyl-8-oxothieno[2′,3′:4,5]pyrrolo[1,2-d][1,2,4]triazin-7(8H)-yl)-N—((R)-1-((R)-2-hydroxypropyl)piperidin-3-yl)acetamide] | > 100000 |  | 4.5
CC(C)c1nn(CC(=O)N[C@@H]2CCCN(C[C@H](C)O)C2)c(=O)c2cc3sc(Cl)cc3n12 [Ex 129, 2-(2-Chloro-5-isopropyl-8-oxothieno[2′,3′:4,5]pyrrolo[1,2-d][1,2,4]triazin-7(8H)-yl)-N-((R)-1-((S)-2-hydroxypropyl)piperidin-3-yl)acetamide] | > 100000 |  | 3.1
CC(C)c1nn(CC(=O)N[C@@H]2CCCN(CC(C)(C)O)C2)c(=O)c2cc3sc(Cl)cc3n12 [Ex 130, (R)-2-(2-Chloro-5-isopropyl-8-oxothieno[2′,3′:4,5]pyrrolo[1,2-d][1,2,4]triazin-7(8H)-yl)-N-(1-(2-hydroxy-2-methylpropyl)piperidin-3-yl)acetamide] | > 100000 |  | 20.4
CC(C)c1nn(CC(=O)N[C@@H]2CCCN(CC3(O)CCC3)C2)c(=O)c2cc3sc(Cl)cc3n12 [Ex 131, (R)-2-(2-Chloro-5-isopropyl-8-oxothieno[2′,3′:4,5]pyrrolo[1,2-d][1,2,4]triazin-7(8H)-yl)-N-(1-((1-hydroxycyclobutyl)methyl)piperidin-3-yl)acetamide] | > 33000 |  | 17.9
CC(C)c1nn(CC(=O)N[C@@H]2CCCN(CCO)C2)c(=O)c2cc3sc(Cl)cc3n12 [Ex 133, (R)-2-(2-Chloro-5-isopropyl-8-oxothieno[2′,3′:4,5]pyrrolo[1,2-d][1,2,4]triazin-7(8H)-yl)-N-(1-(2-hydroxyethyl)piperidin-3-yl)acetamide] | > 100000 |  | 20.5
CC(C)c1nn(CC(=O)N[C@@H]2CCCN(CC3CC3)C2)c(=O)c2cc3sc(Cl)cc3n12 [Ex 134, (R)-2-(2-Chloro-5-isopropyl-8-oxothieno[2′,3′:4,5]pyrrolo[1,2-d][1,2,4]triazin-7(8H)-yl)-N-(1-(cyclopropylmethyl)piperidin-3-yl)acetamide] | > 100000 |  | 0.7
